Series [1] concerns ASEC strains (drug-resistant E. coli, ASEC 1 to 19). The series is described as follows: MIC, microdilution, summary over clinical isolates. It is filed as cell-based. The note with it: Escherichia coli; cefotaxime and ceftazidime: 'mostly showed no activity'. The protocol: (§1) Bacterial cells were cultured at 37°C in the appropriate culture media with shaking (180 rpm). Luria-Bertani broth (LB) (244620; BD Difco) was used for E. coli ATCC 25922, ASEC strains, and B. subtilis KCTC 2217. Nutrient broth (NB) (234000; BD Difco) was used for P. aeruginosa ATCC 27853, S. Typhimurium KCTC 1926, and A. baumannii KCTC 2508. Tryptic soy broth (TSB) (211825; BD Difco) was used for S. aureus ATCC 25923. Finally, brain heart infusion (BHI) (237500; BD Difco) was used for L. monocytogenes KCTC 3710. The antimicrobial activity of each peptide was determined using microdilution assays. To this end, 2-fold serial dilution series of each peptide (from 1 to 64 μM) were added to duplicate media with 10 mM sodium phosphate buffer (pH 7.4). Fifty microliters of the peptide and antibiotic solution was added to each well of a 96-well plate (32096, surface nontreatment; SPL Life Sciences). Then, 50 μL of 2 × 10^5 CFU mL^−1 of bacteria was added to each well, and the samples were incubated for 18 to 24 h without shaking at 37°C.
A general note: Broth dilution looks for growth in wells or tubes with falling amounts of substance.

Another series concerns MDR E. coli ASEC 6. Details: method as in Asan hospital; key to susceptibility category: S: susceptible; R: resistant; I: intermediate. The note with it: ref Asan hospital, cited from earlier work; for MIC: ASEC 6 (ESBL), resistance information of clinical isolate; for susceptibility category: ASEC 6.
The next series relates to MDR E. coli ASEC 3. Details: method as in Asan hospital; key to susceptibility category: S: susceptible; R: resistant; I: intermediate. The note with it: ref Asan hospital, cited from earlier work; for MIC: ASEC 3 (NDM-5), resistance information of clinical isolate; for susceptibility category: ASEC 3.
The subject of another series is MDR E. coli ASEC 14. Set-up: method as in Asan hospital; key to susceptibility category: S: susceptible; R: resistant; I: intermediate. The note with it: ref Asan hospital, cited from earlier work; for MIC: ASEC 14 (AmpC), resistance information of clinical isolate; for susceptibility category: ASEC 14.
The test system of another series is MDR E. coli ASEC 12. Details: method as in Asan hospital; key to susceptibility category: S: susceptible; R: resistant; I: intermediate. The note with it: ref Asan hospital, cited from earlier work; for MIC: ASEC 12 (AmpC), resistance information of clinical isolate; for susceptibility category: ASEC 12.
For another series, the system named is MDR E. coli ASEC 11. Set-up: method as in Asan hospital; key to susceptibility category: S: susceptible; R: resistant; I: intermediate. The note with it: ref Asan hospital, cited from earlier work; for MIC: ASEC 11 (ESBL), resistance information of clinical isolate; for susceptibility category: ASEC 11.
The next series concerns MDR E. coli ASEC 18. Set-up: method as in Asan hospital; key to susceptibility category: S: susceptible; R: resistant; I: intermediate. The note with it: ref Asan hospital, cited from earlier work; for MIC: ASEC 18 (AmpC), resistance information of clinical isolate; for susceptibility category: ASEC 18.
The next series has as its target T1, elastase (Homo sapiens, UniProt P08246).
T1 construct: purchased Sigma-Aldrich 324681
The series is described as follows: Resistance to proteolytic degradation, RP-HPLC. The note with it: 50 μg PN5, 10 μg mL^−1 elastase, 0.1 M Tris-HCl pH 8.0, 37°C, 0 to 540 min; RP-HPLC C18, 214 nm. It is filed as in vitro ADME. How it is done: The stability of PN5 in the presence of the enzyme was measured by treatment with elastase. First, 10 μg mL^−1 elastase in 0.1 M Tris-HCl (pH 8.0) was incubated with 50 μg PN5 at 37°C with shaking (180 rpm), with aliquots collected at 0, 30, 60, 120, 360, 540, and 720 min. After incubation, each sample was observed by RP-HPLC with a Jupiter C18 column (4.6 by 250 mm, 300 Å, 5 μm). E. coli 25922 and S. aureus 25923 were cultured in LB and TSB media with shaking (180 rpm) at 37°C, washed twice with 10 mM sodium phosphate buffer (pH 7.4), suspended in 10 mL LB and TSB media at 2 × 10^5 CFU mL^−1, mixed with 0.2% agarose, and dried for 1 h. Paper disks (6 mm) were placed on the dried agarose, and 50 μg PN5 aliquots was dropped onto the disks. The disks were stored in a 37°C incubator for 24 h. PN5- and elastase (10 μg mL^−1)-treated PN5 was prepared to evaluate the susceptibility to E. coli 25922 and S. aureus 25923. PN5 (6.25, 12.5, 25, 50, and 100 μg) was diluted in 10 mM sodium phosphate buffer (pH 7.4) and 10 μg mL^−1 elastase. E. coli 25922 and S. aureus 25923 were prepared at 2 × 10^5 CFU mL^−1. Peptides with 10 μg mL^−1 elastase and bacteria were incubated for 9 h with shaking (180 rpm) and observed using a visible spectrophotometer (Pharmacia Biotech, Uppsala, Sweden) ([60]).

Series [2] deals with L. monocytogenes KCTC 3710. It is filed as cell-based, Listeria monocytogenes. The note with it: microdilution, BHI, 18 to 24 h, 37°C, three independent experiments. How it is done: as §1

Values after ≈ are worked out from the molar mass of the structure shown. Where no end group is shown, it is not given here.

These results are taken from paper PMC9603901, “Therapeutic Potential of Antimicrobial Peptide PN5 against Multidrug-Resistant E. coli and Anti-Inflammatory Activity in a Septic Mouse Model” (Microbiology Spectrum, 2022).

Broadly, the MIC is the lowest concentration that inhibits growth of the organism.

T1 sequence (P08246 30-267): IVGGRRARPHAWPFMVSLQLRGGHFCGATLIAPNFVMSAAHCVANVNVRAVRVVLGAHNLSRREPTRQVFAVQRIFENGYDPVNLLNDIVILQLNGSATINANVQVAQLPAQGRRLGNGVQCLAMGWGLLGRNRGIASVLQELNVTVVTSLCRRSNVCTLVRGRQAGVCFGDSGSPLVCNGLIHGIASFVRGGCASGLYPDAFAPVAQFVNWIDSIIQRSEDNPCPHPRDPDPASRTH

On to `CO/N=C(\C(=O)N[C@@H]1C(=O)N2C(C(=O)O)=C(COC(C)=O)CS[C@H]12)c1csc(N)n1` [Cefotaxime], for which the MIC is greater than 32 µM in series [1]; greater than 32 µg/mL in the series on MDR E. coli ASEC 6; greater than 32 µg/mL with MDR E. coli ASEC 3; greater than 32 µg/mL in the series with MDR E. coli ASEC 14; greater than 32 µg/mL with MDR E. coli ASEC 12; greater than 32 µg/mL with MDR E. coli ASEC 11. Besides, the MIC in the series on MDR E. coli ASEC 18 is 32 µg/mL (≈ 70.3 µM). The susceptibility category result with MDR E. coli ASEC 6, with MDR E. coli ASEC 3, in the series with MDR E. coli ASEC 14, with MDR E. coli ASEC 12, with MDR E. coli ASEC 11 and in the series on MDR E. coli ASEC 18 was “R” throughout.

As for `CC(C)(O/N=C(\C(=O)N[C@@H]1C(=O)N2C(C(=O)[O-])=C(C[n+]3ccccc3)CS[C@H]12)c1csc(N)n1)C(=O)O` [Ceftazidime], the minimum inhibitory concentration (MIC) in [1] is greater than 32 µM; in the series with MDR E. coli ASEC 6, greater than 16 µg/mL; in the series on MDR E. coli ASEC 3, greater than 16 µg/mL; in the series with MDR E. coli ASEC 14 it was greater than 16 µg/mL; with MDR E. coli ASEC 12 it was 16 µg/mL (≈ 29.3 µM); with MDR E. coli ASEC 11, greater than 16 µg/mL. The MIC with MDR E. coli ASEC 18 is greater than 16 µg/mL. Moreover, the susceptibility category result in the series on MDR E. coli ASEC 6, in the series on MDR E. coli ASEC 3, with MDR E. coli ASEC 14, in the series with MDR E. coli ASEC 12, with MDR E. coli ASEC 11 and in the series with MDR E. coli ASEC 18 was “R” in each case.

As for `C[C@@H](O)[C@H]1C(=O)N2C(C(=O)O)=C(S[C@@H]3CN[C@H](C(=O)N(C)C)C3)[C@H](C)[C@H]12` [Meropenem], the MIC was greater than 8 µg/mL in the series on MDR E. coli ASEC 6; greater than 8 µg/mL with MDR E. coli ASEC 3; 8 µg/mL (≈ 20.9 µM) in the series on MDR E. coli ASEC 14; greater than 8 µg/mL in the series with MDR E. coli ASEC 12; “<= 1 μg mL-1” in the series with MDR E. coli ASEC 11; “<= 1 μg mL-1” with MDR E. coli ASEC 18. Besides, the susceptibility category entry in the series with MDR E. coli ASEC 6 is “R”; in the series with MDR E. coli ASEC 3, “R”; with MDR E. coli ASEC 14 it was “R”; in the series on MDR E. coli ASEC 12, “R”; with MDR E. coli ASEC 11, “S”; in the series on MDR E. coli ASEC 18, “S”.

As to FKFLARTGKFL-NH2 [PN5], the “peak of residual peptide after incubation with elastase” value on elastase is “remained even after 9 h”. In series [2], this compound yielded an MIC of 16 µM.
